Measured values from PubChem BioAssay (NCI).
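Assay format: 96-well plates, 48-hour exposure. TGI denotes the concentration required for complete inhibition of growth.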

What was measured:
Assay in all cases: NCI tumour cell line growth inhibition, 48 h
786-0 renal = tested on: 786-0 renal
A498 renal = tested on: A498 renal
A549 NSCLC = tested on: A549 NSCLC
ACHN renal = tested on: ACHN renal
BT-549 breast = tested on: BT-549 breast
CAKI-1 renal = tested on: CAKI-1 renal
CCRF-CEM leukemia = tested on: CCRF-CEM leukemia
COLO 205 colon = tested on: COLO 205 colon
DU-145 prostate = tested on: DU-145 prostate
EKVX NSCLC = tested on: EKVX NSCLC
HCC-2998 colon = tested on: HCC-2998 colon
HCT-116 colon = tested on: HCT-116 colon
HCT-15 colon = tested on: HCT-15 colon
HL-60(TB) leukemia = tested on: HL-60(TB) leukemia
HOP-62 NSCLC = tested on: HOP-62 NSCLC
HOP-92 NSCLC = tested on: HOP-92 NSCLC
HS 578T breast = tested on: HS 578T breast
HT29 colon = tested on: HT29 colon
IGROV1 ovarian = tested on: IGROV1 ovarian
K-562 leukemia = tested on: K-562 leukemia
KM12 colon = tested on: KM12 colon
LOX IMVI melanoma = tested on: LOX IMVI melanoma
MALME-3M melanoma = tested on: MALME-3M melanoma
MCF7 breast = tested on: MCF7 breast
MDA-MB-231 breast = tested on: MDA-MB-231 breast
MDA-MB-435 = tested on: MDA-MB-435
MDA-N = tested on: MDA-N
MOLT-4 leukemia = tested on: MOLT-4 leukemia
NCI-H226 lung = tested on: NCI-H226 lung
NCI-H23 lung = tested on: NCI-H23 lung
NCI-H460 lung = tested on: NCI-H460 lung
NCI-H522 lung = tested on: NCI-H522 lung
NCI/ADR-RES ovarian = tested on: NCI/ADR-RES ovarian
OVCAR-3 ovarian = tested on: OVCAR-3 ovarian
OVCAR-4 ovarian = tested on: OVCAR-4 ovarian
OVCAR-5 ovarian = tested on: OVCAR-5 ovarian
OVCAR-8 ovarian = tested on: OVCAR-8 ovarian
PC-3 prostate = tested on: PC-3 prostate
RPMI-8226 leukemia = tested on: RPMI-8226 leukemia
RXF 393 renal = tested on: RXF 393 renal
SF-268 CNS = tested on: SF-268 CNS
SF-295 CNS = tested on: SF-295 CNS
SF-539 CNS = tested on: SF-539 CNS
SK-MEL-2 melanoma = tested on: SK-MEL-2 melanoma
SK-MEL-28 melanoma = tested on: SK-MEL-28 melanoma
SK-MEL-5 melanoma = tested on: SK-MEL-5 melanoma
SK-OV-3 ovarian = tested on: SK-OV-3 ovarian
SN12C renal = tested on: SN12C renal
SNB-75 CNS = tested on: SNB-75 CNS
SR leukemia = tested on: SR leukemia
SW-620 colon = tested on: SW-620 colon
T-47D breast = tested on: T-47D breast
TK-10 renal = tested on: TK-10 renal
U251 CNS = tested on: U251 CNS
UACC-257 melanoma = tested on: UACC-257 melanoma
UACC-62 melanoma = tested on: UACC-62 melanoma
UO-31 renal = tested on: UO-31 renal
M14 melanoma = tested on: M14 melanoma
SNB-19 CNS = tested on: SNB-19 CNS

Measured: TGI

O=[N+]([O-])c1cccnc1NCC1(CO)CC(Cc2ccccc2)C1 (configuration not stated)
60.1 µM: HOP-92 NSCLC
not listed: M14 melanoma | SNB-19 CNS
> 100 µM: all other assays above

CCC(CCCC[C@@H]1CC[C@H]2CC(=O)C[C@@H]12)OC (some centres not stated)
not listed: UO-31 renal
> 100 µM: all other assays above

c1ccc(-c2nn(-c3ccccc3)[n+](-c3ccccc3)n2)cc1
> 88 µM: TK-10 renal
> 86.3 µM: NCI-H522 lung
28.3 µM: NCI-H23 lung
31.5 µM: MDA-N
> 81.7 µM: KM12 colon
11.7 µM: UACC-257 melanoma
> 93.5 µM: 786-0 renal
> 38.8 µM: SF-268 CNS
47.5 µM: M14 melanoma
23.7 µM: HCC-2998 colon
> 20.7 µM: PC-3 prostate
> 80.1 µM: SK-MEL-2 melanoma
> 44.4 µM: SR leukemia
2.93 µM: MALME-3M melanoma
6.47 µM: HL-60(TB) leukemia
23.5 µM: MDA-MB-435
> 56.7 µM: HCT-116 colon
14.1 µM: SK-MEL-5 melanoma
80.6 µM: RXF 393 renal
> 43 µM: EKVX NSCLC
> 39.8 µM: CCRF-CEM leukemia
> 92.4 µM: COLO 205 colon | LOX IMVI melanoma
25.9 µM: MCF7 breast
96.3 µM: HOP-92 NSCLC
40.9 µM: UACC-62 melanoma
not listed: OVCAR-3 ovarian | RPMI-8226 leukemia
> 100 µM: all other assays above
